Each structure is given as a SMILES string.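 The compound was tested at five concentrations on cells cultured in 96-well plates, with a 48-hour exposure period. GI50 marks 50% less growth. TGI denotes the concentration required for complete inhibition of growth.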 Some results are limits rather than exact numbers.

One experiment has as its system HOP-92 NSCLC. The experiment in a line: NCI-60 cell line screen, 48 h.
For `Fc1cc2[nH]ncc2c2c3c(c(-c4cn[nH]c4)nc12)CCCC3`, the GI50 was 1.48 µM and the TGI is 5.66 µM.

With `C=C1C(=O)O[C@H]2[C@H]1CC/C(COC(=O)c1c[nH]c3ccccc13)=C\CC[C@@]1(C)O[C@@H]21`, the GI50 is 0.169 µM and the TGI stood at 0.45 µM.

Regarding `CCN1CCN(c2nc(C)cc(N(CCNc3ccnc4cc(Cl)ccc34)Cc3ccc4c(c3)OCO4)n2)CC1`, the GI50 is 1.17 µM and the TGI turned out to be 2.67 µM.

Take `CCN(CC)c1ccc(-c2cc(-c3cc(OC)c(OC)c(OC)c3)nc(N3CCOCC3)c2C#N)cc1`: the GI50 is 0.796 µM and the TGI amounted to 4.42 µM.

With `O=C(CCc1nnc2sc(-c3ccc(Cl)cc3Cl)nn12)c1nc2ncccc2[nH]1`, the GI50 was 1.19 µM and the TGI amounted to 2.6 µM.

In the case of `NS(=O)(=O)c1cc(Br)c(N=Nc2ccc(O)c3ncccc23)c(Br)c1`, the TGI was over 100 µM.

With `COc1ccc(-c2nnc(COc3ccc(C(=O)/C=C/c4ccco4)cc3)o2)cc1`, the GI50 is 2.9 µM and the TGI was 16.9 µM.

With `OCc1ccc(-c2ccc(-c3ccc(CO)s3)o2)s1`, the TGI amounted to 91.2 µM.

On to `Cc1ccccc1S(=O)(=O)OC1NS(=O)(=O)c2ccccc21` (stereo not given), for which the TGI is over 100 µM.

`O=C(Nc1ccc(Cl)cc1)c1cccc(NC2=C(Cl)C(=O)N(Cc3ccccc3)C2=O)c1`: the GI50 is 9.85 µM and the TGI was determined as 21.5 µM.

Take `Cc1cc(/C=C/c2ccc3cc(N(C)C)ccc3[n+]2C)c(C)n1-c1ccccc1`: the GI50 is 0.193 µM and the TGI was determined as 1.33 µM.

For the compound `CC[C@H](Nc1ncnc2nc[nH]c12)c1oc2ccccc2c(=O)c1-c1cccc(F)c1`, the GI50 is 4.99 µM and the TGI was 63.7 µM.

In turn, `COc1cc(NCc2ccc3oc(=O)c(-c4ccccc4)nc3c2)cc(OC)c1OC` gave a TGI of over 10 µM.

As for `COc1ccc(-c2nnc(COc3ccc(NC(=O)Nc4cc(C(F)(F)F)cc(C(F)(F)F)c4)cc3F)o2)cc1`, the GI50 is 1.5 µM and the TGI was found to be 4.58 µM.

For the compound `COC1=CC(=O)C(C2CC(=O)c3c(O)cc(O)cc3O2)=CC1=O` (stereo not given), the TGI was 17.6 µM.

As for `COc1cc(/C=C/c2cc(O)c(C(C)=O)c(O)c2)cc2c1O[C@]1(C)CC[C@@H](O)C(C)(C)[C@H]1C2`, the GI50 is 3.2 µM and the TGI was 61.6 µM.

Turning to `CC(C)C(C)/C=C\C(C)C1CCC2C3=CC=C4CC(O)CCC4(C)C3CCC21C` (stereo not given), the TGI is 70.2 µM.

The next experiment relates to SR leukemia. The experiment in a line: NCI-60 cell line screen, 48 h.
Regarding `Fc1cc2[nH]ncc2c2c3c(c(-c4cn[nH]c4)nc12)CCCC3`, the GI50 is 0.355 µM and the TGI was over 100 µM.

For `C=C1C(=O)O[C@H]2[C@H]1CC/C(COC(=O)c1c[nH]c3ccccc13)=C\CC[C@@]1(C)O[C@@H]21`, the GI50 is 0.285 µM and the TGI was 1.33 µM.

Turning to `CCN1CCN(c2nc(C)cc(N(CCNc3ccnc4cc(Cl)ccc34)Cc3ccc4c(c3)OCO4)n2)CC1`, the GI50 was 1.33 µM and the TGI amounted to 3.71 µM.

With `CCN(CC)c1ccc(-c2cc(-c3cc(OC)c(OC)c(OC)c3)nc(N3CCOCC3)c2C#N)cc1`, the GI50 is 0.163 µM and the TGI was determined as 0.672 µM.

Regarding `O=C(CCc1nnc2sc(-c3ccc(Cl)cc3Cl)nn12)c1nc2ncccc2[nH]1`, the GI50 is 1.9 µM and the TGI is over 100 µM.

For `NS(=O)(=O)c1cc(Br)c(N=Nc2ccc(O)c3ncccc23)c(Br)c1`, the TGI is over 100 µM.

For `COc1ccc(-c2nnc(COc3ccc(C(=O)/C=C/c4ccco4)cc3)o2)cc1`, the GI50 is 1.52 µM and the TGI turned out to be 7.28 µM.

For `OCc1ccc(-c2ccc(-c3ccc(CO)s3)o2)s1`, the TGI was determined as 61.1 µM.

Regarding `Cc1ccccc1S(=O)(=O)OC1NS(=O)(=O)c2ccccc21` (stereo not given), the TGI is over 100 µM.

Consider `O=C(Nc1ccc(Cl)cc1)c1cccc(NC2=C(Cl)C(=O)N(Cc3ccccc3)C2=O)c1`, for which the GI50 is 3.56 µM and the TGI was 14.9 µM.

As for `Cc1cc(/C=C/c2ccc3cc(N(C)C)ccc3[n+]2C)c(C)n1-c1ccccc1`, the GI50 is 0.0442 µM and the TGI is 1.42 µM.

For `CC[C@H](Nc1ncnc2nc[nH]c12)c1oc2ccccc2c(=O)c1-c1cccc(F)c1`, the GI50 was 11.5 µM and the TGI was 50 µM.

As to `COc1cc(NCc2ccc3oc(=O)c(-c4ccccc4)nc3c2)cc(OC)c1OC`, the TGI is over 10 µM.

`COc1ccc(-c2nnc(COc3ccc(NC(=O)Nc4cc(C(F)(F)F)cc(C(F)(F)F)c4)cc3F)o2)cc1`: the GI50 is 2.19 µM and the TGI was 5.95 µM.

Compound `COC1=CC(=O)C(C2CC(=O)c3c(O)cc(O)cc3O2)=CC1=O` (stereo not given) displayed a TGI of 15.6 µM.

As for `COc1cc(/C=C/c2cc(O)c(C(C)=O)c(O)c2)cc2c1O[C@]1(C)CC[C@@H](O)C(C)(C)[C@H]1C2`, the GI50 was 3.62 µM and the TGI was over 100 µM.

With `CC(C)C(C)/C=C\C(C)C1CCC2C3=CC=C4CC(O)CCC4(C)C3CCC21C` (stereo not given), the TGI was over 61.8 µM.

A further experiment concerns SNB-75 CNS. Kind of experiment: NCI-60 cell line screen, 48 h.
For `Fc1cc2[nH]ncc2c2c3c(c(-c4cn[nH]c4)nc12)CCCC3`, the GI50 was 0.994 µM and the TGI came to 2.32 µM.

Turning to `C=C1C(=O)O[C@H]2[C@H]1CC/C(COC(=O)c1c[nH]c3ccccc13)=C\CC[C@@]1(C)O[C@@H]21`, the GI50 is 0.207 µM and the TGI came to 0.923 µM.

On to `CCN1CCN(c2nc(C)cc(N(CCNc3ccnc4cc(Cl)ccc34)Cc3ccc4c(c3)OCO4)n2)CC1`, for which the GI50 was 1.35 µM and the TGI is 2.9 µM.

As for `CCN(CC)c1ccc(-c2cc(-c3cc(OC)c(OC)c(OC)c3)nc(N3CCOCC3)c2C#N)cc1`, the GI50 is 1.02 µM and the TGI was 12 µM.

Regarding `O=C(CCc1nnc2sc(-c3ccc(Cl)cc3Cl)nn12)c1nc2ncccc2[nH]1`, the GI50 was 0.459 µM and the TGI stood at 3.79 µM.

In the case of `NS(=O)(=O)c1cc(Br)c(N=Nc2ccc(O)c3ncccc23)c(Br)c1`, the TGI turned out to be 73.7 µM.

Consider `COc1ccc(-c2nnc(COc3ccc(C(=O)/C=C/c4ccco4)cc3)o2)cc1`, for which the GI50 was 3.04 µM and the TGI was 14.5 µM.

Take `OCc1ccc(-c2ccc(-c3ccc(CO)s3)o2)s1`: the TGI was found to be 80.3 µM.

These data come from PubChem BioAssay (NCI).
